Source: ChEMBL document CHEMBL1135703, “Synthesis and biological activity of a novel class of small molecular weight peptidomimetic competitive inhibitors of protein tyrosine phosphatase 1B” (2002)

Legend:
[1] = target: Receptor-type tyrosine-protein phosphatase F (Homo sapiens) (UniProt P10586); experiment: Percent inhibition of Protein-tyrosine phosphatase Lar assayed at 100 uM
[2] = target: T1, Tyrosine-protein phosphatase non-receptor type 1 (Homo sapiens) (UniProt P18031); experiment: Percent inhibition of Protein Tyrosine Phosphatase 1B (PTP 1B) assayed at 100 uM
T1 sequence (whole entry): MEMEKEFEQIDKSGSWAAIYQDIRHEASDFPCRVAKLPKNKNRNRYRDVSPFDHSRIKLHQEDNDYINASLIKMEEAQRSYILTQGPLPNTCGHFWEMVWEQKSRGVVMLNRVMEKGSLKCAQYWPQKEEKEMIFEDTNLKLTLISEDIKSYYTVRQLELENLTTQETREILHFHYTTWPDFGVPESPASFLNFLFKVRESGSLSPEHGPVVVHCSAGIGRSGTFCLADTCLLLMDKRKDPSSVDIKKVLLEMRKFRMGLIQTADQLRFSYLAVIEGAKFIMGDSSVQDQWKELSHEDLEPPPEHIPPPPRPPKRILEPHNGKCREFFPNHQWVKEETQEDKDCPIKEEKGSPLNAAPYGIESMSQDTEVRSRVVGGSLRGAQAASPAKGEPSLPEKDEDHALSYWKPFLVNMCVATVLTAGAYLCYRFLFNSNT

[3] = target: T2, Tyrosine-protein phosphatase non-receptor type 11 (Mus musculus) (UniProt P35235); experiment: (§1) Percent inhibition of Tyrosine phosphatase SHP2 SH2 domain containing PTP involved in insulin uM; set-up: concentration or dose not given beside the values; conditions: concentration not given here
T2 sequence (whole entry): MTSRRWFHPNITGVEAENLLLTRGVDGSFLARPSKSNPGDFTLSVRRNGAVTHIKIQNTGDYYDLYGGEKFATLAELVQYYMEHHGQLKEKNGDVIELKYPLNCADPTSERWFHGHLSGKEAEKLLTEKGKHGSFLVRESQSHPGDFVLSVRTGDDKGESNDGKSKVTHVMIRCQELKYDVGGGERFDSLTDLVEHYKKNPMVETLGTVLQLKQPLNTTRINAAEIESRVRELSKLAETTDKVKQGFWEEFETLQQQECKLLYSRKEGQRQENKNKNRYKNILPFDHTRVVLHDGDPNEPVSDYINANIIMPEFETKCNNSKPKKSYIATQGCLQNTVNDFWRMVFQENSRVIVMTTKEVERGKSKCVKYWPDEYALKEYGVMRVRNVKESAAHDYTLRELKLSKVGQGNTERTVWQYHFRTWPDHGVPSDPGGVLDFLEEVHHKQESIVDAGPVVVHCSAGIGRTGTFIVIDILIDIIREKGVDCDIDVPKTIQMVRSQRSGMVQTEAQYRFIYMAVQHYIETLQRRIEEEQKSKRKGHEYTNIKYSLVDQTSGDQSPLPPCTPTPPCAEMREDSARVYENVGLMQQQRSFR

[4] = target: T3, Tyrosine-protein phosphatase non-receptor type 1 (Rattus norvegicus) (UniProt P20417); experiment: Percent inhibition of Protein-tyrosine phosphatase 1 (PTP) assayed at 100 uM
T3 sequence (whole entry): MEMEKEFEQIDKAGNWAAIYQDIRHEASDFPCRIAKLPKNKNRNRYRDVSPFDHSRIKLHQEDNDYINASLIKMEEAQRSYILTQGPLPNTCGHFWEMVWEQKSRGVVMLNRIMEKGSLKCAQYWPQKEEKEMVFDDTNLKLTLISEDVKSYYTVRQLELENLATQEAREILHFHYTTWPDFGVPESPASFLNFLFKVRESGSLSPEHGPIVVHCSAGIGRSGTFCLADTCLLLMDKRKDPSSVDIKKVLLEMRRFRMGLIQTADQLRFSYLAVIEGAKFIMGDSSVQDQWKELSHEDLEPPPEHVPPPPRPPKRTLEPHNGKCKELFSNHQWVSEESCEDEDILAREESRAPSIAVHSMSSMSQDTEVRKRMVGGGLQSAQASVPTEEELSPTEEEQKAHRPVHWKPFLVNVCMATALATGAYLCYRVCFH

[5] = Uptake of 2-deoxyglucose into L-6 myocytes, measurements were taken in absence of insulin (basal), assayed at 100 uM; assay type: functional
[6] = Uptake of 2-deoxyglucose into L-6 myocytes, measurements were taken in presence of insulin (+ins), assayed at 100 uM; assay type: functional
[7] = target: T2, Tyrosine-protein phosphatase non-receptor type 11 (Mus musculus); experiment: as §1; conditions: concentration not given here

Chain of Receptor-type tyrosine-protein phosphatase F (Homo sapiens) (P10586 whole entry): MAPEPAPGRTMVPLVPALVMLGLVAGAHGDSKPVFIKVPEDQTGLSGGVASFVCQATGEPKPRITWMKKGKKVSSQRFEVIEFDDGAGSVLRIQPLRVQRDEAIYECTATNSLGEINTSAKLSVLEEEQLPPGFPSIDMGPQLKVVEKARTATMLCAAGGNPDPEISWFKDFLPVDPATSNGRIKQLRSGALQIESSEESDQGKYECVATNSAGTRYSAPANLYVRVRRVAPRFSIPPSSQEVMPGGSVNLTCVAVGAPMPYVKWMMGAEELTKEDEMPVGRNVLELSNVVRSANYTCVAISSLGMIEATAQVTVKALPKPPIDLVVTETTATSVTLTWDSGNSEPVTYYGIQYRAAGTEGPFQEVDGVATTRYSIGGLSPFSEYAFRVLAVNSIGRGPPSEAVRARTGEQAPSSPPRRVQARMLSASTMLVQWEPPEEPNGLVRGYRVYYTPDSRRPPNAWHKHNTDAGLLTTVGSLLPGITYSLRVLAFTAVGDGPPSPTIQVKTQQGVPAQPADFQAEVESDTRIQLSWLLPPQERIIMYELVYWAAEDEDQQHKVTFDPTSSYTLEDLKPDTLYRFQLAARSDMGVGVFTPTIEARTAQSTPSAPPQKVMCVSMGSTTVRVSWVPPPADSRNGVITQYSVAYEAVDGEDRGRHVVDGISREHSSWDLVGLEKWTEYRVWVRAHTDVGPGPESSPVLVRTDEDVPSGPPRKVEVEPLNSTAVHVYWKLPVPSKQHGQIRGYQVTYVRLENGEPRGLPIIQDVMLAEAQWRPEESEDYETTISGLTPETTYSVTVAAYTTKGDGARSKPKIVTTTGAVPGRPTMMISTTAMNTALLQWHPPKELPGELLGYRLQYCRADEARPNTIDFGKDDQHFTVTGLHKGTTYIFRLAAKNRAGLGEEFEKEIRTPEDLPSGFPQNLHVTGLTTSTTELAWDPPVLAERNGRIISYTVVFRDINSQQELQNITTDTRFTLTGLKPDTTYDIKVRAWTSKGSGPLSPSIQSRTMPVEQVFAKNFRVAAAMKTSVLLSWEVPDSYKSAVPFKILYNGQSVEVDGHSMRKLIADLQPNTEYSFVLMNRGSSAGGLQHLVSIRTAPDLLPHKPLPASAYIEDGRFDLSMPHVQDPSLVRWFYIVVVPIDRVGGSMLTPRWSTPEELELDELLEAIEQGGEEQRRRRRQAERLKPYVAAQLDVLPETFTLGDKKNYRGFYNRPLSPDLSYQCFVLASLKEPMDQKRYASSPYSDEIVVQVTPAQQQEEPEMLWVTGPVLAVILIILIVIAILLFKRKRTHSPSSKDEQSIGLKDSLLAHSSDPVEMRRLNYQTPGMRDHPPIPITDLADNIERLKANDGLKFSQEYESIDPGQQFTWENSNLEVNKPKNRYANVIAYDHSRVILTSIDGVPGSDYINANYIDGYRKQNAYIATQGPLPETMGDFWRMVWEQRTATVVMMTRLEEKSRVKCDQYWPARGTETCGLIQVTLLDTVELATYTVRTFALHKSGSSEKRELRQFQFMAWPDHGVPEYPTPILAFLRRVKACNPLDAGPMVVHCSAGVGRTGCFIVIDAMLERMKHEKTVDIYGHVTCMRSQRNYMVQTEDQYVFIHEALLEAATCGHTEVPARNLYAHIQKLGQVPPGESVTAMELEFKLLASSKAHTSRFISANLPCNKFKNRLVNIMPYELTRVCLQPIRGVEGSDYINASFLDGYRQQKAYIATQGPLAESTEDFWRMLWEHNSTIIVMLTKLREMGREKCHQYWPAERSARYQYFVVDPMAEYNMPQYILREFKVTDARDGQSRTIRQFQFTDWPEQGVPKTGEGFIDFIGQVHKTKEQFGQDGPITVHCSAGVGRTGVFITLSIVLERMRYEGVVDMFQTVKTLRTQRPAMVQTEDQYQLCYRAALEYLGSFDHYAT

Row | inhibition [1] [%] | inhibition [2] [%] | inhibition [3] [%] | inhibition [4] [%] | inhibition [7] [%] | Structure (SMILES) | 2-deoxyglucose uptake, % of control [5] [%] | 2-deoxyglucose uptake, % of control [6] [%]
1 | 0 | 19 | 0 | – | – | CCCCCNC(=O)[C@H](Cc1ccc(OCC(=O)O)c(C(=O)O)c1)NC(=O)[C@@H](Cc1ccccc1)NC(=O)OC(C)(C)C | 107 | 89
2 | 3 | 0 | 0 | – | – | CCCCCNC(=O)C(Cc1ccc(OCC(=O)OC)c(C(=O)OC)c1)NC(=O)[C@H](Cc1ccccc1)NC(=O)CCC(=O)OC (some centres undefined) | 225 | 77
3 | 7 | 95 | 25 | 96 | – | CCCCCNC(=O)C(Cc1ccc(OC(C(=O)O)C(=O)O)cc1)NC(=O)[C@H](CC(=O)O)NC(=O)CCC(=O)O (some centres undefined) | – | –
4 | 26 | 98 | 71 | 98 | – | CCCCCNC(=O)[C@H](Cc1ccc(OC(C(=O)O)C(=O)O)cc1)NC(=O)[C@H](Cc1ccc(C(=O)c2ccccc2)cc1)NC(=O)CCC(=O)O | – | –
5 | 0 | 87 | 5 | 93 | – | CCCCCNC(=O)C(Cc1ccc(OCC(=O)O)c(C(=O)O)c1)NC(=O)CCC(=O)O (centres undefined) | – | –
6 | 23 | 99 | 44 | 97 | – | CCCCCNC(=O)C(Cc1ccc(OC(C(=O)O)C(=O)O)cc1)NC(=O)[C@H](Cc1ccccc1)NC(=O)CCC(=O)O (some centres undefined) | – | –
7 | 0 | 78 | 2 | 84 | – | CCCCCNC(=O)C(Cc1ccc(OCC(=O)O)c(C(=O)O)c1)NC(=O)[C@H](Cc1ccccc1)NC(=O)OC(C)(C)C (some centres undefined) | 81 | 108
8 | 0 | 93 | 10 | – | – | CCCCCNC(=O)C(Cc1ccc(OCC(=O)O)c(C(=O)O)c1)NC(=O)[C@H](Cc1ccccc1)NC(=O)CCC(=O)O (some centres undefined) | 105 | 83
9 | 0 | 5 | 2 | 16 | – | CCCCCNC(=O)C(Cc1ccc(OCC(N)=O)c(C(=O)O)c1)NC(=O)CCC(=O)O (centres undefined) | – | –

More lines, now with the values behind:

Row | Structure (SMILES) | inhibition [1] [%] | inhibition [2] [%] | inhibition [3] [%] | inhibition [4] [%] | inhibition [7] [%] | 2-deoxyglucose uptake, % of control [5] [%] | 2-deoxyglucose uptake, % of control [6] [%]
10 | CCCCCNC(=O)C(Cc1ccc(OC(C(=O)O)C(=O)O)cc1)NC(=O)[C@H](C)NC(=O)OC(C)(C)C (some centres undefined) | 0 | 83 | 3 | 76 | – | – | –
11 | CCCCCNC(=O)C(Cc1ccc(OS(=O)(=O)O)cc1)NC(=O)CCC(=O)O (centres undefined) | 5 | 51 | – | 80 | 6 | – | –
12 | CCCCCNC(=O)C(Cc1ccc(OC(C(=O)O)C(=O)O)cc1)NC(=O)[C@H](Cc1ccccc1)NC(=O)OC(C)(C)C (some centres undefined) | 27 | 91 | 10 | 88 | – | – | –
13 | CCCCCNC(=O)C(Cc1ccc(OCC(=O)OC)c(C(=O)OC)c1)NC(=O)[C@H](Cc1ccccc1)NC(=O)OC(C)(C)C (some centres undefined) | 0 | 0 | 1 | – | – | 114 | 72
14 | CCCCCNC(=O)C(Cc1ccc(OC(C(=O)O)C(=O)O)cc1)NC(=O)[C@H](Cc1ccc(OC)cc1)NC(=O)OC(C)(C)C (some centres undefined) | 30 | – | 9 | 90 | – | – | –
15 | O=C(O)CCC(=O)NC(Cc1ccc(OC(C(=O)O)C(=O)O)cc1)C(=O)NCCCn1ccnc1 (centres undefined) | 3 | – | 1 | 26 | – | – | –
16 | CCCCCNC(=O)C(Cc1ccc(OC(C(=O)O)C(=O)O)cc1)NC(=O)[C@H](COc1ccc(Cc2cc(Cl)ccc2Cl)cc1)NC(=O)OC(C)(C)C (some centres undefined) | 27 | – | 45 | 85 | – | – | –
17 | CCCCCNC(=O)C(Cc1ccc(OC(C(=O)O)C(=O)O)cc1)NC(=O)[C@H]1C[C@@H]1C(=O)O (some centres undefined) | 6 | – | 10 | 57 | – | – | –
18 | CCCCCNC(=O)C(CCc1ccc(OC(C(=O)O)C(=O)O)cc1)NC(=O)CCC(=O)O (centres undefined) | 0 | – | 10 | 18 | – | – | –
19 | O=C(O)CCC(=O)NC(Cc1ccc(OC(C(=O)O)C(=O)O)cc1)C(=O)NCCCc1ccccc1 (centres undefined) | 6 | – | 12 | 72 | – | – | –
20 | O=C(O)CCC(=O)NC(Cc1ccc(OC(C(=O)O)C(=O)O)cc1)C(=O)NCc1ccc(C(F)(F)F)cc1 (centres undefined) | 4 | – | 15 | 66 | – | – | –
21 | CC(C)CCNC(=O)C(Cc1ccc(OC(C(=O)O)C(=O)O)cc1)NC(=O)CCC(=O)O (centres undefined) | 5 | – | 7 | 48 | – | – | –
22 | CCCCCNC(=O)C(Cc1ccc(OC(C(=O)O)C(=O)O)cc1)NC(=O)[C@H]1CCCC[C@H]1C(=O)O (some centres undefined) | 8 | – | 13 | 62 | – | – | –
23 | CCCCCNC(=O)C(Cc1ccc(OC(C(=O)O)C(=O)O)cc1)NC(=O)CCC(=O)O (centres undefined) | 2 | 80 | – | 76 | 8 | – | –
